Key:
[1] = molecular target: G protein-coupled receptor 84 (GPR84) (Homo sapiens, UniProt Q9NQS5); experiment: cAMP inhibition, DMR and ERK assays in receptor-transfected CHO-K1/HEK293-T cells; type: cell-based
[2] = molecular target: T1, hydroxycarboxylic acid receptor 3 (HCA3) (Homo sapiens, UniProt P49019); experiment: DMR ([…]) in receptor-transfected CHO-K1 cells; type: cell-based
T1 construct: gene HCAR3
T1 sequence (P49019 whole entry): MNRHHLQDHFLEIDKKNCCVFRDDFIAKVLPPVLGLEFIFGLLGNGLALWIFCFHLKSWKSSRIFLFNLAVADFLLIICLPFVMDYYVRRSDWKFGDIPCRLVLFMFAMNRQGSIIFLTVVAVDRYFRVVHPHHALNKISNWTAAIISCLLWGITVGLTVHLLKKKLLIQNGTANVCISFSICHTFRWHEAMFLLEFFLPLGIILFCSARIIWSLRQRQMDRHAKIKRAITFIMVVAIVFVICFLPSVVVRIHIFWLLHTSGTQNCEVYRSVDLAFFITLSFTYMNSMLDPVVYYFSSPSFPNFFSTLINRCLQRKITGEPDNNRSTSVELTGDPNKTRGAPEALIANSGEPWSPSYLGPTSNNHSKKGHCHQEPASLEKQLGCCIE

G protein-coupled receptor 84 (GPR84), sequence (Q9NQS5 whole entry): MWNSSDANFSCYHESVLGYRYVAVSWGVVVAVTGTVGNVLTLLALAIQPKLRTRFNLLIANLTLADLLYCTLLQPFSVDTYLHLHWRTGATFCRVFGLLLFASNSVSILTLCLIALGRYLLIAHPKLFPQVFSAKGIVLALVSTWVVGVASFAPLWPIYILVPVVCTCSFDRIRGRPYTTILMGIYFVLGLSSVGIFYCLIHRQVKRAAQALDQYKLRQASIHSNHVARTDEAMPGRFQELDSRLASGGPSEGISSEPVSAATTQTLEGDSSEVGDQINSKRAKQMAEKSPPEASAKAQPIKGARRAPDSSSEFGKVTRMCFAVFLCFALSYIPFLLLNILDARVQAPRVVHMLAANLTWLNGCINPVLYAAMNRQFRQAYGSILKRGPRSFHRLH

Row | SMILES | EC50 [1] | DMR (250 μM) in receptor-transfected CHO-K1 cells [2]
1 | CCCCCCCC(O)CC(=O)O (stereo not drawn) [3HDec, 3-hydroxydecanoic acid] | In contrast, C10 and 3HDec but not 3HO activated GPR84 | –
2 | CCCCCCCCCC(=O)O [C10, decanoic acid] | C10 and 3HDec activated GPR84. | –
3 | N[C@H](Cc1ccccc1)C(=O)O [D-Phe, D-phenylalanine] | – | dynasore affected the DMR-response of human and gorilla HCA3 to D-Phe and L-PLA in a similar manner
